Among the test systems are MDA-MB-435; HL-60; SNB-75; UACC-257; NCI-H460; OVCAR-5; HCT-15; SR; NCI-H226; CAKI-1; SK-OV-3; HOP-92; EKVX; HCT-116; SF-268; SN12C; UO-31; PC-3; COLO 205; MOLT-4.
Common to all, as to assay: DTP human tumour cell line panel, 48 h

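How tested: cells in 96-well plates exposed to compound for 48 hours at five concentrations. GI50 = concentration required for 50% inhibition of growth.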 Calls of active or inactive are those of the source. Cut-off read from the data, not from the text of the source: active = GI50 up to about 1.1 µM and inactive = higher.

For orientation: GI50 means the concentration that inhibits growth by half.

In the case of `CCN(CC)C(=S)SS(=O)(=O)c1ccc(NC(C)=O)cc1`, the GI50 was 17.1 µM (inactive) with MDA-MB-435; 23.9 µM (inactive) in the assay with HL-60; 25.4 µM (inactive) with SNB-75; 21.8 µM (inactive) in the assay with UACC-257; 26.2 µM (inactive) in the assay with NCI-H460; 24.5 µM (inactive) in the assay on OVCAR-5. The concentration for 50% growth inhibition (GI50) was 30.9 µM with HCT-15; 0.0226 µM (active) with SR; > 59.7 µM (inactive) in the assay on NCI-H226; 18.8 µM (inactive) in the assay on CAKI-1; 40.5 µM (inactive) in the assay with SK-OV-3; 19.8 µM (inactive) in the assay with HOP-92. Also, the GI50 is 44.5 µM (inactive) in the assay with EKVX; 16 µM (inactive) with HCT-116; 28.9 µM (inactive) in the assay on SF-268; 18.2 µM (inactive) in the assay with SN12C; 19.5 µM (inactive) in the assay with UO-31; 27.1 µM (inactive) in the assay on PC-3. Further, the GI50 with COLO 205 is 25.6 µM (inactive).
For `C#C[C@]1(O)CC[C@H]2[C@@H]3CCC4=C/C(=N/NC(=O)c5cccc6cc7ccccc7nc56)CC[C@@H]4[C@H]3CC[C@@]21CC`, the GI50 was 91.4 µM (inactive) with MDA-MB-435; 48 µM (inactive) in the assay on HL-60; > 100 µM (inactive) in the assay with SNB-75; > 100 µM (inactive) in the assay on UACC-257; 36.3 µM (inactive) with NCI-H460; 0.0942 µM (active) with MOLT-4. Moreover, the GI50 in the assay on OVCAR-5 was 77.3 µM (inactive); with HCT-15, 56 µM; in the assay with SR it was 38.5 µM (inactive); in the assay on NCI-H226 it was > 100 µM (inactive); in the assay with CAKI-1, 29.3 µM (inactive); with SK-OV-3, > 100 µM (inactive). Also, the GI50 with HOP-92 was > 100 µM (inactive); in the assay with HCT-116 it was 60.5 µM (inactive); in the assay with SF-268 it was 70 µM (inactive); in the assay on SN12C, 35.4 µM (inactive); with PC-3, 62.2 µM (inactive); in the assay on COLO 205, 70.5 µM (inactive).
For the compound `Cc1ccc(C2=Nc3cccc4cccc(c34)N2)cc1`, the GI50 with MDA-MB-435, in the assay on HL-60, with SNB-75, with UACC-257, in the assay with NCI-H460 and in the assay with MOLT-4 was > 100 µM (inactive) each time. Besides, the concentration for 50% growth inhibition (GI50) was over 100 µM in the assay with HCT-15; > 100 µM (inactive) with SR; > 100 µM (inactive) in the assay with NCI-H226; > 100 µM (inactive) in the assay with CAKI-1; > 100 µM (inactive) with SK-OV-3; > 100 µM (inactive) in the assay with HOP-92. Moreover, the GI50 with EKVX, in the assay on HCT-116, in the assay with SF-268, in the assay with SN12C, in the assay with UO-31 and in the assay on PC-3 was > 100 µM (inactive) in each case. Besides, the GI50 with COLO 205 is > 100 µM (inactive).
In the case of `COc1cc(C2c3cc4c(cc3OC(NCCO)C2C)OCO4)cc(OC)c1O` (stereo not drawn), the GI50 is 2.1 µM (inactive) in the assay on MDA-MB-435; 7.45 µM (inactive) with SNB-75; 30.7 µM (inactive) in the assay with OVCAR-5; 3.44 µM with HCT-15; 6.12 µM (inactive) in the assay with SR; 49.3 µM (inactive) with NCI-H226. The GI50 in the assay on CAKI-1 was 19.2 µM (inactive); in the assay with HOP-92 it was 86.5 µM (inactive); in the assay on HCT-116, 5.06 µM (inactive); in the assay on SF-268, 39.6 µM (inactive); with SN12C it was 4.6 µM (inactive); in the assay on UO-31, 24.5 µM (inactive). Further, the GI50 with PC-3 is 8.79 µM (inactive); in the assay with COLO 205 it was 21.2 µM (inactive).
As to `C=CCC1(C(=O)OC)CCC/C(=N\O)C1` (stereo not drawn), the GI50 was > 10 µM (inactive) in the assay on MDA-MB-435; > 10 µM (inactive) in the assay on HL-60; > 10 µM (inactive) in the assay with SNB-75; > 10 µM (inactive) with UACC-257; > 10 µM (inactive) with MOLT-4; over 10 µM in the assay on HCT-15. Besides, the GI50 with SR, in the assay on CAKI-1, in the assay with SK-OV-3, in the assay with HOP-92, in the assay on HCT-116 and in the assay with SF-268 was > 10 µM (inactive) throughout. Further, the GI50 in the assay on SN12C, with PC-3 and with COLO 205 was > 10 µM (inactive) throughout.
As for `COC(=O)C(COC(C)=O)NC(=O)/C=C/c1ccc(O)c(OC(C)=O)c1` (stereo not drawn), the GI50 was > 100 µM (inactive) in the assay with MDA-MB-435; > 100 µM (inactive) in the assay on SNB-75; > 100 µM (inactive) in the assay on UACC-257; 60.3 µM (inactive) with NCI-H460; 13.6 µM (inactive) in the assay on MOLT-4; > 100 µM (inactive) in the assay on OVCAR-5. In addition, the GI50 in the assay with HCT-15 is 8.97 µM; in the assay on SR, 5.81 µM (inactive); in the assay on NCI-H226 it was > 100 µM (inactive); with CAKI-1, 66.2 µM (inactive); in the assay on SK-OV-3 it was > 100 µM (inactive); in the assay with HOP-92, 83.4 µM (inactive). The GI50 is > 100 µM (inactive) with EKVX; 39.1 µM (inactive) in the assay with HCT-116; > 100 µM (inactive) with SF-268; > 100 µM (inactive) in the assay on SN12C; 49.2 µM (inactive) in the assay with UO-31; 99.1 µM (inactive) with PC-3. For the same compound, the GI50 in the assay on COLO 205 is > 100 µM (inactive).
As for `COc1ccc(C(C#N)NCCCCCCNC(C#N)c2ccc(OC)cc2)cc1` (stereo not drawn), the GI50 with MDA-MB-435, in the assay with HL-60, with SNB-75, in the assay with UACC-257, with MOLT-4 and in the assay on OVCAR-5 was > 100 µM (inactive) each time. For the same compound, the GI50 is over 100 µM with HCT-15; > 100 µM (inactive) in the assay with SR; > 100 µM (inactive) in the assay on NCI-H226; > 100 µM (inactive) in the assay with CAKI-1; > 100 µM (inactive) in the assay with SK-OV-3; > 100 µM (inactive) with HOP-92. Further, the GI50 in the assay on EKVX, in the assay with HCT-116, with SF-268, in the assay with SN12C, in the assay on UO-31 and with PC-3 was > 100 µM (inactive) throughout. In addition, the GI50 in the assay with COLO 205 is > 100 µM (inactive).
On to `COc1ccc2oc(=O)c(-c3cc4c(c(C)n3)c(=O)oc3ccc(OC)cc34)cc2c1`, for which the GI50 with MDA-MB-435, with HL-60, in the assay with SNB-75, in the assay on UACC-257, in the assay with NCI-H460 and in the assay with MOLT-4 was > 100 µM (inactive) each time. The GI50 with HCT-15 is over 100 µM; in the assay on SR, > 100 µM (inactive); in the assay with NCI-H226 it was > 100 µM (inactive); in the assay on CAKI-1, 70.8 µM (inactive); with SK-OV-3, > 100 µM (inactive); with HOP-92, > 100 µM (inactive). Moreover, the GI50 is > 100 µM (inactive) in the assay with EKVX; > 100 µM (inactive) in the assay on HCT-116; 55.8 µM (inactive) in the assay with SF-268; > 100 µM (inactive) with SN12C; > 100 µM (inactive) in the assay with UO-31; > 100 µM (inactive) in the assay on PC-3. Further, the GI50 in the assay with COLO 205 is > 100 µM (inactive).
Take `OCC(O)C(O)C(O)C(/C=N\Nc1ncnc2ccc(Br)cc12)=N/Nc1ncnc2ccc(Br)cc12` (stereo not drawn): the GI50 with MDA-MB-435 was 12.9 µM (inactive); with HL-60, 3.15 µM (inactive); in the assay with SNB-75 it was 24.4 µM (inactive); in the assay on UACC-257, 7.48 µM (inactive); with MOLT-4 it was 2.62 µM (inactive); with OVCAR-5, 16.7 µM (inactive). Further, the GI50 in the assay with SR is 3.17 µM (inactive); with NCI-H226, 5.58 µM (inactive); with CAKI-1, 4.55 µM (inactive); in the assay with SK-OV-3, 6.38 µM (inactive); in the assay on HOP-92, 13.8 µM (inactive); in the assay on EKVX it was 4.42 µM (inactive). In addition, the GI50 in the assay with HCT-116 is 3.09 µM (inactive); with SF-268, 0.423 µM (active); in the assay on SN12C, 17.9 µM (inactive); with UO-31, 37.5 µM (inactive); in the assay on PC-3, 19 µM (inactive); in the assay with COLO 205 it was 3.31 µM (inactive).
On to `O=C1OC(c2ccccc2)=N/C1=C/c1cccs1`, for which the GI50 in the assay with MDA-MB-435 was > 100 µM (inactive); with HL-60 it was 18.8 µM (inactive); with SNB-75 it was 42.4 µM (inactive); in the assay with UACC-257 it was 65.6 µM (inactive); in the assay with NCI-H460, > 100 µM (inactive); with MOLT-4 it was 14.5 µM (inactive). For the same compound, the GI50 with OVCAR-5 is > 100 µM (inactive); with HCT-15, 36.7 µM; in the assay with SR, 70 µM (inactive); with NCI-H226, 58.3 µM (inactive); in the assay on SK-OV-3, > 100 µM (inactive); in the assay with HOP-92, > 100 µM (inactive). Further, the GI50 with EKVX, with SF-268 and with PC-3 was > 100 µM (inactive) throughout.
For `O=C(c1ccccc1)C1C[C@H]2CO[C@H](c3ccccc3)N2C1=O` (stereo partly drawn), the GI50 in the assay on MDA-MB-435 is > 100 µM (inactive); with SNB-75, > 100 µM (inactive); with UACC-257 it was > 100 µM (inactive); in the assay with NCI-H460 it was > 100 µM (inactive); with MOLT-4, 97.9 µM (inactive); with OVCAR-5, > 100 µM (inactive). The 50% growth inhibitory concentration (GI50) in the assay with HCT-15 is over 100 µM; in the assay with SR, > 100 µM (inactive); with NCI-H226 it was > 100 µM (inactive); with CAKI-1, > 100 µM (inactive); with HOP-92, > 100 µM (inactive); with EKVX it was > 100 µM (inactive). The GI50 in the assay on HCT-116, in the assay with SF-268, with SN12C, in the assay with UO-31, in the assay on PC-3 and with COLO 205 was > 100 µM (inactive) throughout.

(Values after ChEMBL document CHEMBL1201862, “PubChem BioAssay data set” (2004).)
